Results on two compounds are retold here after patent US12617770B2, “IRAK inhibitor and preparation method therefor and use thereof” (WUHAN CREATERNA SCIENCE AND TECHNOLOGY CO., LTD., priority 2019, dated 2026).

One data set has as its target T1, human IRAK1 (Homo sapiens, UniProt P51617).
T1 construct: purchased Cama (so in the source)
In words: IRAK1 MSA (Mobility-Shift Assay) at Km concentration of ATP. The format is biochemical. The note with it: for IC50: read-out: IRAKI IC50; for IRAKI IC50 (nM)/ IRAK4 IC50 (nM): selectivity ratio IRAK1 to IRAK4. As to the method:
This assay evaluated the inhibitory effect of the compounds on human IRAK1 activity with the same materials as in Test Example 1.
A recombinant fusion protein of N-terminal GST (glutathione-S-transferase) and human IRAK1 was used as enzyme (GST-IRAK1, kinase IRAK1, Cama) at a final concentration of 3 nM: ATP (Sigma) was at a final concentration of 97 μM; the substrates used for the kinase reaction were 5-FAM (5-carboxyfluorescein)-labeled polypeptide (5-FAM-[…]-COOH) and substrate peptide FAM-P8 (GL Biochem) at final concentrations of 5 μM.
In this assay, 500 μM stock solutions of the compounds were prepared in 100% DMSO, and serially 4-fold diluted to the 10th concentration gradient with 100% DMSO, followed by a 10-fold dilution in the compound buffer (50 mM HEPES, pH 7.5, 0.00015% Brij-35) to give intermediate dilutions of the compounds at a final concentration of 10 μM−0.04 nM containing 10% DMSO. 5 μL of the intermediate dilution was transferred into a black 384-well plate.
IRAK1 was diluted to 7.5 nM in the kinase buffer (50 mM HEPES, pH 7.5, 0.00015% Brij-35, 2 mM DTT). 10 μL of the IRAK1 dilution was transferred to the 384-well plate and co-incubated with the compound for 10-15 min.
The substrate and ATP were diluted to 12.5 μM and 242.5 μM with reaction buffer (50 mM HEPES, pH 7.5, 0.00015% Brij-35, 10 mM MgCl2), respectively. 10 μL of the dilution was transferred to a 384-well plate and incubated at 28° C. for 1 h. The reaction was terminated by adding 25 μL of 50 mM EDTA to the 384-well plate.
The inhibition of IRAK1 by the compounds was calculated by measuring the rate of phosphorylated substrate using a Caliper EZ Reader (PerkinElmer) and the IC50 was calculated by XL-fit software.

Data set [1] in a line: Plasma protein binding (PPB), equilibrium dialysis, human plasma. The note with it: 5 h at 37° C., read-out: Plasma protein binding (Bound %) Human (converted). In kind it is in vitro ADME. As to the method: (§1) The experiment is intended to determine plasma protein binding (PPB) data of the test compounds disclosed herein.
(§2) In the PPB experiment, the final administration matrix contained the test compound or a reference compound with a concentration of 1 μM and DMSO with a content of 0.2%.
(§3) Collecting samples in initial time: 25 μL of the matrix containing the compound was added into a blank 96-well collecting plate, and the plate was stored at −20° C.
(§4) An equilibrated dialysis device was prepared. 100 μL of buffer was added to the receiving side of the equilibrium dialysis plate. Then 100 μL of the administration matrix containing the compound or the reference compound was added into an administration side of the equilibrium dialysis plate. The prepared equilibrium dialysis plate was placed in a 37° C. shaker to be shaken for 5 h at 60 rpm.
(§5) Sample was prepared at the end of cultivation (5 h): Preparing sample in the receiving side: 25 μL of sample from a receiving side was taken out and placed in a 96-well sample collecting plate, and 25 μL of a corresponding matrix (blank plasma) was added for mixing: 200 μL of ACN containing an internal standard was added, shaken for 10 minutes at 600 rpm, and centrifuged at 5594 g for 15 min.
(§6) Preparing sample in the administration side: 25 μL of the sample containing test compound and reference compound from the administration side was taken out and 25 μL of a blank buffer was added for mixing; 200 μL of ACN containing an internal standard was added, shaken for 10 minutes at 600 rpm, and centrifuged at 5594 g for 15 min.
(§7) Preparing sample in initial time: the sample containing test compound and reference compound was re-melted at 37° C. in initial time and then mixed with the corresponding matrix (blank buffer) in the same volume (25 μL); 200 μL of ACN containing an internal standard was added, shaken for 10 minutes at 600 rpm, and centrifuged at 5594 g for 15 min.
(§8) After all the samples were centrifuged, 50 μL of a supernatant was taken and added into 50 μL of ultrapure water for mixing, and the samples were sent to liquid chromatography-mass spectrometry.
For orientation: Equilibrium dialysis compares concentrations on both sides of a semipermeable membrane.

The nature of data set [2]: Plasma protein binding (PPB), equilibrium dialysis, mouse plasma. In kind it is in vitro ADME. To be noted: 5 h at 37° C., read-out: Plasma protein binding (Bound %) Mouse (converted). The protocol:
as §1, §2, §3, §4, §5, §6, §7, §8

Another data set deals with T2, CYP1A2 (Homo sapiens, UniProt P05177).
T2 construct: co-incubated at 7 concentrations with human liver microsomes and five probe substrates; tissue Corning (USA); host or cells: mixed (pooled) human liver microsomes
T2 sequence (P05177 1-516): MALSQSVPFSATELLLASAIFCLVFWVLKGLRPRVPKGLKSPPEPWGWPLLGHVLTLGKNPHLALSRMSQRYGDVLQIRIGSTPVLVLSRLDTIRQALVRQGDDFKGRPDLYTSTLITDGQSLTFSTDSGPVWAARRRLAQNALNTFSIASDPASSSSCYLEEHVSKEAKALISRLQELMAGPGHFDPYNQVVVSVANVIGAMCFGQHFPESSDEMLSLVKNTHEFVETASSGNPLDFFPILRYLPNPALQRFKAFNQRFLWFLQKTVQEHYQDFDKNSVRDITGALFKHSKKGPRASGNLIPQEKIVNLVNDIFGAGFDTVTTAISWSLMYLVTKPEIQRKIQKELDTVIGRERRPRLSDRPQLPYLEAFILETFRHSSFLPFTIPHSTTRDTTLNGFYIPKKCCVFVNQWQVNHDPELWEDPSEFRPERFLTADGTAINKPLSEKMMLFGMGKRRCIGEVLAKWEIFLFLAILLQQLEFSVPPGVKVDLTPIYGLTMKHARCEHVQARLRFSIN
Briefly: CYP450 inhibition in human liver microsomes, CYP1A2. The format is in vitro ADME. The note with it: pooled (mixed) human liver microsomes, probe phenacetin. As to the method:
This study was intended to investigate the inhibitory effect of the test compounds on 5 major enzymes in human P450 superfamily, CYP1A2, 2C9, 2C19, 2D6 and 3A4-M. The mixed human liver microsomes used in this assay were purchased from Corning (USA). The test compound (compound 14) was co-incubated at 7 concentrations with human liver microsomes and five probe substrates (phenacetin for CYP1a2, diclofenac for CYP2C9, mephenytoin for CYP2C19, dextromethorphan for CYP2D6, midazolam for CYP3A4-M, mixed). The reaction was initiated by adding coenzyme NADPH, and terminated by adding acetonitrile containing internal standard. After the proteins were precipitated, the supernatant was centrifuged. The characteristic metabolites in the supernatant (acetaminophen for CYP1A2, 4-hydroxydiclofenac for CYP2C9, 4-hydroxymephenytoin for CYP2C19, dextrorphan for CYP2D6, 1-hydroxymidazolam for CYP3A4-M) were analyzed by LC-MS/MS. The influence of the test compounds on production of the characteristic metabolites was finally analyzed on the basis of the data obtained. A selective inhibitor (ketoconazole for CYP3A4-M) may be used as positive control. All samples were tested in duplicate.
A general note: Liver microsomes are vesicles of endoplasmic reticulum, rich in cytochrome P450 enzymes.

T1 sequence (P51617 whole entry): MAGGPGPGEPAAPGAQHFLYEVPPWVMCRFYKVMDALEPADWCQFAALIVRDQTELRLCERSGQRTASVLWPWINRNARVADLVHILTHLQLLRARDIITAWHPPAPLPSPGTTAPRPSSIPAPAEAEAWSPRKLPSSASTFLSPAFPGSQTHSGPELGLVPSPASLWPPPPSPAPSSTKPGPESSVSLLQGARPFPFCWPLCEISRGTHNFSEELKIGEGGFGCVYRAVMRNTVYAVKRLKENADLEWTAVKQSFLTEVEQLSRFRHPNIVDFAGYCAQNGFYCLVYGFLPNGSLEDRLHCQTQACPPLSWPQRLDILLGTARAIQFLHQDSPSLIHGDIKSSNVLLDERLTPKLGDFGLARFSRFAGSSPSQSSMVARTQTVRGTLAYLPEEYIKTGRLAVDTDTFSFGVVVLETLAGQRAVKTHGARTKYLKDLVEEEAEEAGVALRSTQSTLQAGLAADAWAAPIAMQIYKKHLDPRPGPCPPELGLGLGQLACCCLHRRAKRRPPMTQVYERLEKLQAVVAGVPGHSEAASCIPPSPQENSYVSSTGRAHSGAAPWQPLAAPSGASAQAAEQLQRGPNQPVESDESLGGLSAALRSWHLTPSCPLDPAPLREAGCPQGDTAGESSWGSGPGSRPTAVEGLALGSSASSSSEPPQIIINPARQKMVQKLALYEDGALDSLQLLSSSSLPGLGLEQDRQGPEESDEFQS

What is called IC50 is the concentration at which inhibition is half-maximal. As for `COc1cc2nn([C@H]3CC[C@](C)(O)CC3)cc2cc1NC(=O)c1cccc(C)[n+]1[O-]` [Compound 001, 2-((2-((1r,4r)-4-hydroxy-4-methylcyclohexyl)-6-methoxy-2H-indazol-5-yl)carbamoyl)-6-methylpyridine 1-oxide], the IC50 on human IRAK1 is 4.04 µM; against CYP1A2 it was more than 30 µM. The “IRAKI IC50 (nM)/ IRAK4 IC50 (nM)” value on human IRAK1 is on record as 673.2. Further, the fraction unbound at 5 h, 1 μM was 0.19 in data set [1] and 0.201 in data set [2].

As to `COc1cc2nn(CCC(C)(C)O)cc2cc1NC(=O)c1cccc(C)[n+]1[O-]` [Compound 163, 2-((2-(3-hydroxy-3-methylbutyl)-6-methoxy-2H-indazol-5-yl)carbamoyl)-6-methylpyridine 1-oxide], the figures for the IC50 at human IRAK1 and against CYP1A2 were 2.99 µM and more than 30 µM, respectively. Besides, the “IRAKI IC50 (nM)/ IRAK4 IC50 (nM)” value at human IRAK1 stood at 130.1. Moreover, the values for the fraction unbound at 5 h, 1 μM in data set [1] and in data set [2] were 0.183 and 0.162, respectively.
